The nature of experiment [1]: (§1) Inhibition of Sporosarcina pasteurii urease using urea as substrate after 15 min.
In a further experiment the test system is Sporosarcina pasteurii. Described as §1.

Two molecules from ChEMBL document CHEMBL3046712, “Molecular simulations of bergenin as a new urease inhibitor” (Med Chem Res, 2012) can be followed below.

For orientation: IC50 means the concentration needed to halve the response being measured. A higher IC50 goes with lower potency. The inhibition is the percentage by which the read-out fell short of the control.

With `COc1c(O)cc2c(c1O)[C@@H]1O[C@H](CO)[C@@H](O)[C@H](O)[C@H]1OC2=O` [BERGENIN], the IC50 in experiment [1] came to 21.7 µM. The inhibition in the experiment with Sporosarcina pasteurii was found to be 78%. In turn, `NC(N)=S` [THIOUREA] registered an IC50 in experiment [1] of 25 µM.
